The target in experiment [1] is Epidermal growth factor receptor (Homo sapiens) (UniProt P00533). Nature of the experiment: Binding affinity to N-terminal protease cleavable His-GST tagged wild type human EGFR (696 to 1022 residues) expressed as baculovirus infected Sf9 cells assessed as mass shift at 10 fold molar excess incubated for 2 hrs by LC-MS/MS analysis.
Experiment [2] has as its system Epidermal growth factor receptor (Homo sapiens), P00533 [L858R,T790M]. Nature of the experiment: Binding affinity to Cys797 residue of trypsin digested EGFR L858R/T790M mutant (unknown origin) by Nano-LC-MS/MS analysis.
For experiment [3], the target named is T1, Tyrosine-protein kinase BTK (Homo sapiens, UniProt Q06187). As to the kind of experiment: Binding affinity to human BTK harboring cysteine at alphaD-1 position at 10 uM by Kinomescan analysis.
Experiment [4] concerns the target T2, Tyrosine-protein kinase JAK3 (Homo sapiens) (UniProt P52333).
T2 sequence (whole entry): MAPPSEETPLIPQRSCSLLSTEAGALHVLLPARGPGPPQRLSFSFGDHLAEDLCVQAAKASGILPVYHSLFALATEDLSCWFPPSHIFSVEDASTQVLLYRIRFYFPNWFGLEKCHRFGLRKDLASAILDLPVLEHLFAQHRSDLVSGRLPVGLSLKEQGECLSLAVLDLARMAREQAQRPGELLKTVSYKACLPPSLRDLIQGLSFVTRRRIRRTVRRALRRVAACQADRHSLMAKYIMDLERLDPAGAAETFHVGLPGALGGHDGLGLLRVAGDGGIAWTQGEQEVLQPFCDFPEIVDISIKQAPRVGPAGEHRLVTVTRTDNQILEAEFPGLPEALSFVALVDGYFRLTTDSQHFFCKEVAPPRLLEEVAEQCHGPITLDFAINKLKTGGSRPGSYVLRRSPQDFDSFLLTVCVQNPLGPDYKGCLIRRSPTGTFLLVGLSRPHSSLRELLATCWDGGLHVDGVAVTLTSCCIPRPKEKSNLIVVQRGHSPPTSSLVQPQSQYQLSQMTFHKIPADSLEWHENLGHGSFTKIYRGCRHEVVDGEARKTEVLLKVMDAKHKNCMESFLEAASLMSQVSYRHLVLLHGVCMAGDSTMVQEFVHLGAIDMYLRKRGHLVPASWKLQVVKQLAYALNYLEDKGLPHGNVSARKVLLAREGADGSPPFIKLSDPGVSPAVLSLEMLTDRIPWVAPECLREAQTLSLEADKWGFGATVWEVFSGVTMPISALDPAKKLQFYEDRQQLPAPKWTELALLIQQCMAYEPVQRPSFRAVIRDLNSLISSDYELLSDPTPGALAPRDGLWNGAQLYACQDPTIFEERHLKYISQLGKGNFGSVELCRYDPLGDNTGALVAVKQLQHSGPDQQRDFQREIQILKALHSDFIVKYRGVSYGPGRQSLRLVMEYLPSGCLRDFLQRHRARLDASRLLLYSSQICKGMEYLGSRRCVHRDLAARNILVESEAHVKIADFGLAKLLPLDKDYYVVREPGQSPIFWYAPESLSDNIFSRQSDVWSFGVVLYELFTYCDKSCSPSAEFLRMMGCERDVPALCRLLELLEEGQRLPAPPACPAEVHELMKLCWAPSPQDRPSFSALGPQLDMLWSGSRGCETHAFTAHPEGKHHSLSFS
As to the kind of experiment: Binding affinity to human JAK3 JH1 domain harboring cysteine at alphaD-1 position at 10 uM by Kinomescan analysis.

Experiment [5] deals with Epidermal growth factor receptor (Homo sapiens) (UniProt P00533). Nature of the experiment: Binding affinity to human EGFR harboring cysteine at alphaD-1 position at 10 uM by Kinomescan analysis.
Experiment [6] deals with T3, Dual specificity mitogen-activated protein kinase kinase 7 (Homo sapiens) (UniProt O14733).
T3 sequence (whole entry): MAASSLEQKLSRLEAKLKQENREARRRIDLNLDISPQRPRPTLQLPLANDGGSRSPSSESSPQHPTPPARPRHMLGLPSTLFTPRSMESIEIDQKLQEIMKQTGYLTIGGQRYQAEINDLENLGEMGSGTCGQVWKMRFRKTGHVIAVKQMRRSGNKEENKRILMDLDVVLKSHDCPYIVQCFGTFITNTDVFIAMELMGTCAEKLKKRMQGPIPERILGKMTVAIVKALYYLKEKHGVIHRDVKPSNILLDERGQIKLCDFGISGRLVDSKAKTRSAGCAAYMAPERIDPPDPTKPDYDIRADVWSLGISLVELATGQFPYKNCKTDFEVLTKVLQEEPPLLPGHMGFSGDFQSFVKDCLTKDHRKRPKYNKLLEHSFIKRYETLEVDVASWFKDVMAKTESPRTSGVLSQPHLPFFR
Nature of the experiment: Binding affinity to human MKK7 harboring cysteine at alphaD-1 position at 10 uM by Kinomescan analysis.

Experiment [7] concerns the target Epidermal growth factor receptor (Homo sapiens, UniProt P00533, L858R). As to the kind of experiment: Inhibition of EGFR L858R mutant (unknown origin) harboring cysteine at alphaD-1 position by LanthaScreen assay. On the technique in general: TR-FRET usually uses a lanthanide donor and a delayed reading to cut background.
Experiment [8] deals with T4, Tyrosine-protein kinase JAK3 (Homo sapiens, UniProt P52333).
T4 sequence (P52333 whole entry): T2 sequence (whole entry)
As to the kind of experiment: Inhibition of JAK3 (unknown origin) harboring cysteine at alphaD-1 position by LanthaScreen assay.

Experiment [9] deals with T1, Tyrosine-protein kinase BTK. As to the kind of experiment: Inhibition of BTK (unknown origin) harboring cysteine at alphaD-1 position by LanthaScreen assay.
For experiment [10], the target named is T5, Dual specificity mitogen-activated protein kinase kinase 5 (Homo sapiens, UniProt Q13163).
T5 sequence (Q13163 whole entry): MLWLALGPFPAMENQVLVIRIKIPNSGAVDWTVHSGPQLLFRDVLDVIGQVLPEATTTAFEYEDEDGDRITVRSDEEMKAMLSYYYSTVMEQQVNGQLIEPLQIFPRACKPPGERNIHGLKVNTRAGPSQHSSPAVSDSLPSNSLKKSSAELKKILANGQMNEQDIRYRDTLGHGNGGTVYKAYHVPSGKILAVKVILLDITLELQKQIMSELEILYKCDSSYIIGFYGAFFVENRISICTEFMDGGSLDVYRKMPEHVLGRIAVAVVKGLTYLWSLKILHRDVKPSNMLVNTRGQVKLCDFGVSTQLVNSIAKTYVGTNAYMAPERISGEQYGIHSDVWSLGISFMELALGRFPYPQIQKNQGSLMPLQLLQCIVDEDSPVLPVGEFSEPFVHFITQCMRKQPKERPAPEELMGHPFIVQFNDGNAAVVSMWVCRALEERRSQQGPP
As to the kind of experiment: Inhibition of MEK5 (unknown origin) by LanthaScreen assay.

In experiment [11] the target is T1, Tyrosine-protein kinase BTK. As to the kind of experiment: Binding affinity to BTK (unknown origin) assessed as covalent bond formation by measuring cysteine 481-labeling by mass spectrometry analysis relative to control.
The target of experiment [12] is T2, Tyrosine-protein kinase JAK3 (Homo sapiens). As to the kind of experiment: Binding affinity to JAK3 JH1 domain (unknown origin) assessed as covalent bond formation by measuring cysteine 909-labeling by mass spectrometry analysis relative to control.
The target of experiment [13] is T1, Tyrosine-protein kinase BTK. As to the kind of experiment: Displacement of K-10 tracer from wild type BTK in HEK293T cells expressing NanoLuc preincubated for 3 hrs followed by tracer addition and measured after 1 hr by NanoBRET analysis. The format is cell-based. Background: In BRET a luciferase serves as donor, and the signal depends on an acceptor being close.

Experiment [14] relates to Tyrosine-protein kinase BTK (Homo sapiens), Q06187 [C481S]. As to the kind of experiment: Displacement of K-10 tracer from BTK C481S mutant in HEK293T cells expressing NanoLuc preincubated for 3 hrs followed by tracer addition and measured after 1 hr by NanoBRET analysis. The experiment is classed as cell-based. The settings on record: time 4.0 hrs.
A further experiment concerns HEK293T. Nature of the experiment: Displacement of K-4 tracer from BLK C319S mutant in HEK293T cells expressing NanoLuc preincubated for 3 hrs followed by tracer addition and measured after 1 hr by NanoBRET analysis. Conditions: Homo sapiens, time 4.0 hrs. The format is cell-based.
The subject of experiment [15] is BaF3. As to the kind of experiment: Inhibition of biotinylated osimertinib binding to EGFR L858R mutant in mouse BaF3 cells preincubated for 3 hrs followed by biotinylated osimertinib addition and incubated overnight by competitive pulldown based Western blot analysis. The experiment is classed as cell-based. The settings on record: dose 0.2-10 µM. (In western blotting, separated proteins are transferred to a membrane and probed.)

In experiment [16] the target is T1, Tyrosine-protein kinase BTK. As to the kind of experiment: Inhibition of biotinylated ibrutinib binding to BTK in human MINO cells at 0.2 to 10 uM preincubated for 3.5 hrs followed by biotinylated ibrutinib addition and incubated overnight by competitive pulldown based Western blot analysis. The format is cell-based. The settings on record: dose 0.2-10 µM.
The target of experiment [17] is Epidermal growth factor receptor (Mus musculus) (UniProt Q01279). Nature of the experiment: Inhibition of EGFR phosphorylation at Y1068 residue in mouse Ba/F3 EGFR-L858R cells at 0.2 to 10 uM incubated for 6 hrs by Western blot analysis. The format is cell-based. Conditions: dose 0.2-10 µM.
Experiment [18] concerns the target Mitogen-activated protein kinase 1 and 3 (ERK2 and ERK1) (Mus musculus) (UniProt P63085+Q63844). As to the kind of experiment: Inhibition of ERK1/2 phosphorylation at T202/Y204 residues in mouse Ba/F3 EGFR-L858R cells at 0.2 to 10 uM incubated for 6 hrs by Western blot analysis. The format is cell-based. The settings on record: dose 0.2-10 µM.
Experiment [19] deals with RAC-alpha serine/threonine-protein kinase (Mus musculus) (UniProt P31750). Nature of the experiment: Inhibition of AKT phosphorylation at S473 residue in mouse Ba/F3 EGFR-L858R cells at 0.2 to 10 uM incubated for 6 hrs by Western blot analysis. The experiment is classed as cell-based. The settings on record: dose 0.2-10 µM.
A short description of the next experiment: cells. Conditions: Mus musculus, Ba/F3 EGFR-L858R, 72 h.
The test system of experiment [20] is BaF3. As to the kind of experiment: cells. The settings on record: Mus musculus, BaF3, 72 h.
In experiment [21] the target is T6, Tyrosine-protein kinase Blk (Homo sapiens, UniProt P51451). As to the kind of experiment: Inhibition of BLK (unknown origin) harboring cysteine at alphaD-1 position by LanthaScreen assay.
Experiment [22] has as its target T6, Tyrosine-protein kinase Blk. As to the kind of experiment: Displacement of K-4 tracer from wild type BLK in HEK293T cells expressing NanoLuc preincubated for 3 hrs followed by tracer addition and measured after 1 hr by NanoBRET analysis. The format is cell-based.
Experiment [23] has as its system BaF3. As to the kind of experiment: Inhibition of biotinylated osimertinib binding to EGFR L858R mutant in mouse BaF3 cells at 0.2 to 10 uM preincubated for 3 hrs followed by biotinylated osimertinib addition and incubated overnight by competitive pulldown based Western blot analysis. The format is cell-based. Conditions: dose 0.2-10 µM.

Data on six compounds can be found in ChEMBL document CHEMBL5528037 (J Med Chem, 2024).

Activity calls are given as the source filed them. The calls are words filed in the database; no cut-off is given here.

T1 sequence (Q06187 whole entry): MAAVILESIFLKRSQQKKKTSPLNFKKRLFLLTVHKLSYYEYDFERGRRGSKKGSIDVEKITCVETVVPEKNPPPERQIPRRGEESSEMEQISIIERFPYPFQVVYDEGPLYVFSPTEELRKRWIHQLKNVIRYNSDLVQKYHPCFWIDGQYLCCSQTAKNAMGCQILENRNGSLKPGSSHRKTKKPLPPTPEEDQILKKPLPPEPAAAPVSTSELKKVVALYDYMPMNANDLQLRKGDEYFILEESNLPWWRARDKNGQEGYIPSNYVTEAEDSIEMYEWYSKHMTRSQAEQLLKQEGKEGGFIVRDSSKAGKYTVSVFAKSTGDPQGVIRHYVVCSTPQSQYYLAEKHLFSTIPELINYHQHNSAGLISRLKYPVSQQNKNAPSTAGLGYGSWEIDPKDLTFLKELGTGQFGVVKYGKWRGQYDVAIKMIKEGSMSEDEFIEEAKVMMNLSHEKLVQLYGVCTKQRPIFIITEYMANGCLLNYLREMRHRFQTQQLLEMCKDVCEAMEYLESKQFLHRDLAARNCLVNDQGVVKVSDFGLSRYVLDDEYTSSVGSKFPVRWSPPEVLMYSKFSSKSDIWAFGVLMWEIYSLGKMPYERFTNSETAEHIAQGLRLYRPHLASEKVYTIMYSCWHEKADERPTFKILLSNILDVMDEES
T6 sequence (P51451 whole entry): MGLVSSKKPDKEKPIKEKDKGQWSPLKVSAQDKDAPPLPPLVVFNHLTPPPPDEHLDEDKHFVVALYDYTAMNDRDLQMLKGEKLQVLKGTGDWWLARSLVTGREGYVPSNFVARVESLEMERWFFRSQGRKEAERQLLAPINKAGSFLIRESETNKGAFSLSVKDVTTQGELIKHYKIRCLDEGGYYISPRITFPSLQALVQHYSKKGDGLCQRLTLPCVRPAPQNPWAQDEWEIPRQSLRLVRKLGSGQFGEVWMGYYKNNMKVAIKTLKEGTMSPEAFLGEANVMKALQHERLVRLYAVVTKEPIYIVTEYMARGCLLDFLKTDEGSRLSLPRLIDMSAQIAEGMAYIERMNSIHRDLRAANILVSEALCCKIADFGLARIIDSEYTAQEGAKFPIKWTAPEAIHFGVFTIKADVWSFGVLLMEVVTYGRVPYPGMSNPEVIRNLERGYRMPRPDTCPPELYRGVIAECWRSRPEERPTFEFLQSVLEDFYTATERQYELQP
Sequence of Mitogen-activated protein kinase 1 and 3 (ERK2 and ERK1) (Mus musculus) (P63085 whole entry, looked up): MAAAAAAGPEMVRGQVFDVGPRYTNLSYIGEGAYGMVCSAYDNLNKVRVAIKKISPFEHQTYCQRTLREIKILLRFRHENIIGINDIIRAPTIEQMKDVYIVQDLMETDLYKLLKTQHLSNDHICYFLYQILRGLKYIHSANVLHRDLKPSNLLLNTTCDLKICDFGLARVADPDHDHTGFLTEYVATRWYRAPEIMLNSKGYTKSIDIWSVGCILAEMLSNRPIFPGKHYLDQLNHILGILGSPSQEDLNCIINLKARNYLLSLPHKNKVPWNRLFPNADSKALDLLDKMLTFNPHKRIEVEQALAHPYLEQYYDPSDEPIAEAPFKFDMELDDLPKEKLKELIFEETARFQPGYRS
Sequence of Mitogen-activated protein kinase 1 and 3 (ERK2 and ERK1) (Mus musculus) (Q63844 whole entry, looked up): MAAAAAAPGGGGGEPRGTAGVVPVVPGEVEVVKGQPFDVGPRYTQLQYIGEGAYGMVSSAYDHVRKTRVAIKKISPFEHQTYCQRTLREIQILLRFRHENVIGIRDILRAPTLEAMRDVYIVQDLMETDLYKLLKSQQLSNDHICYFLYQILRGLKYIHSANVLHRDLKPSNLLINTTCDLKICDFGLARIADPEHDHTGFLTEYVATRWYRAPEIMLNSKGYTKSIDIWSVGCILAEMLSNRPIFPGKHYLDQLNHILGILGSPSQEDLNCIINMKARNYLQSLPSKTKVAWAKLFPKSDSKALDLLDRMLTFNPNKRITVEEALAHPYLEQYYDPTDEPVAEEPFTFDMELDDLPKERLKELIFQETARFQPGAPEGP
Sequence of Epidermal growth factor receptor (Mus musculus) (Q01279 whole entry): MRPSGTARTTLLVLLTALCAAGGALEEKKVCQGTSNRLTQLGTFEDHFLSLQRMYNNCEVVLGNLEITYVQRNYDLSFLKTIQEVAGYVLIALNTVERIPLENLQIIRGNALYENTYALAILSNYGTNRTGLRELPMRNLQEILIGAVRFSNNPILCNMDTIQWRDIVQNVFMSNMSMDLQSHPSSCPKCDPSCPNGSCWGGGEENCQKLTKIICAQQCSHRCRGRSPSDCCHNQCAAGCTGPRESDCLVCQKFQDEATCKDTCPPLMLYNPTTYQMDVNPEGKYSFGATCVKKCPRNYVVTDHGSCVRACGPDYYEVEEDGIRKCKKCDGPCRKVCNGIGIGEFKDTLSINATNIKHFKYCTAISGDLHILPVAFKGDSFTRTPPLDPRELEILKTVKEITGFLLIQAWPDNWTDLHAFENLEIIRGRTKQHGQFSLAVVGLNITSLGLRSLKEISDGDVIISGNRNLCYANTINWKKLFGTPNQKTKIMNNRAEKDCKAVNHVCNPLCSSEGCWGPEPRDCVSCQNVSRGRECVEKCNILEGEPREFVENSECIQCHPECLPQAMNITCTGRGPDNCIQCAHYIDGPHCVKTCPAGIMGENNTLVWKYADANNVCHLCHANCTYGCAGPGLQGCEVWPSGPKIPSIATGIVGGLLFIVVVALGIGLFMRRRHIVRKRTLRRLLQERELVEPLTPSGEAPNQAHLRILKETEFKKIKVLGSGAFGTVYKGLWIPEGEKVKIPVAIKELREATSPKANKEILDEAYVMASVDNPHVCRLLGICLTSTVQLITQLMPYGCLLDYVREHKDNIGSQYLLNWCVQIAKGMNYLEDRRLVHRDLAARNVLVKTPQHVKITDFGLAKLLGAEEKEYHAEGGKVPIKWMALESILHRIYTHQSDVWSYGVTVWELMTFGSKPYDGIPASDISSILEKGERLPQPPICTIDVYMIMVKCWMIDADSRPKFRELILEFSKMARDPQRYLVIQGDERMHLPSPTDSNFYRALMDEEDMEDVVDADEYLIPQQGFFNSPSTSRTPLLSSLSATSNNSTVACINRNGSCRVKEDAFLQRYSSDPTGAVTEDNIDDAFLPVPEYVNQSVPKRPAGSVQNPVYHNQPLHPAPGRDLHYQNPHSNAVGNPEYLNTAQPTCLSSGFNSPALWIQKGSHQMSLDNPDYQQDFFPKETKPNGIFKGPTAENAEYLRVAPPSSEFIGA
Sequence of RAC-alpha serine/threonine-protein kinase (Mus musculus) (P31750 whole entry): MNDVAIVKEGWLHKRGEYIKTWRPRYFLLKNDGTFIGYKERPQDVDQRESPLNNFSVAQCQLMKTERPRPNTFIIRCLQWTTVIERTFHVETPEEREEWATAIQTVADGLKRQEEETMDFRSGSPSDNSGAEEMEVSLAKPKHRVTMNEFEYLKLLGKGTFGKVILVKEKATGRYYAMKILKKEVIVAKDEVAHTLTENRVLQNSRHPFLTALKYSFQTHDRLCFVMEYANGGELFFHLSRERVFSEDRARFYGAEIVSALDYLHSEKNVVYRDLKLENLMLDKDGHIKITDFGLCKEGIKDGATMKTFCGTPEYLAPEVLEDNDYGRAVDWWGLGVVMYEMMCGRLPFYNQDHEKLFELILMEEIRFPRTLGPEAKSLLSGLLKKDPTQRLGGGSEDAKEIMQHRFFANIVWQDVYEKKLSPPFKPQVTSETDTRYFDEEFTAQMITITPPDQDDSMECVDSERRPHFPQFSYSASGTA
Sequence of Tyrosine-protein kinase BTK (Homo sapiens), Q06187 [C481S] (Q06187 whole entry C481S): as the sequence (Q06187 whole entry) above, with C481S counted along it

In general, IC50 refers to the concentration needed to halve the response being measured. A low value points to greater potency. With `C=CC(=O)N1CC(Oc2nn(C(C)(C)C)c3ncnc(N)c23)C1`, the outcome in experiment [1], in experiment [2], in experiment [3], in experiment [4], in experiment [5] and in experiment [6] was Active. Also, the IC50 in experiment [7] was 0.242 µM; in experiment [8], 0.0592 µM; in experiment [9], 0.105 µM; in experiment [10], above 10 µM; in [13], 0.865 µM. The Activity in [11] turned out to be 80%; in [12], 60%. Moreover, the result (in experiment [14]; in the experiment with HEK293T) was inactive. Also, in the experiment on BaF3 [15], the inhibition result is “Dose-Dependent Effect”. The inhibition result in experiment [16], in experiment [17], in experiment [18] and in experiment [19] was “Active” throughout.
In the case of `C=CC(=O)N1CCCC(Oc2nn(C(C)(C)C)c3ncnc(N)c23)C1` (centres undefined), the results for the IC50 in “cells” and with BaF3 [20] were 10.6 µM and above 10 µM, respectively.
Take `CCC(=O)N1CC(Oc2nn(C(C)(C)C)c3ncnc(N)c23)C1`: the IC50 is above 10 µM in experiment [7]; above 10 µM in experiment [8]; above 10 µM in experiment [9]; above 10 µM in [21]; above 30 µM in experiment [22]; above 30 µM in [13]. Further, the inhibition entry (in the experiment on BaF3 [23]; in experiment [16]; in [17]; in experiment [18]; in experiment [19]) was “inactive” throughout.
Consider `C=CC(=O)N1CCC(Oc2nn(C(C)(C)C)c3ncnc(N)c23)CC1`, for which the IC50 in the experiment “cells” worked out at 0.604 µM; with BaF3 [20] it was 3.62 µM.
For `C=CC(=O)N1CCC(Oc2nn(C(C)(C)C)c3ncnc(N)c23)C1` (centres undefined) the same measures were 2.41 µM and 5.99 µM.
For `C=CC(=O)Nc1cc(Nc2nccc(-c3cn(C)c4ccccc34)n2)c(OC)cc1N(C)CCN(C)C` [OSIMERTINIB] the same measures were 0.0024 µM and 0.019 µM.
